Laboratory results from ChEMBL document CHEMBL1909046, “DrugMatrix in vitro pharmacology data”.

Legend:
[1] = biological target: T1, Alpha-2A adrenergic receptor (Homo sapiens, UniProt P08913); assay type: cell membranes, Sf9, Membrane; note: in other assays of this panel Not Active means under 50% inhibition at 10 µM
T1 sequence (P08913 whole entry): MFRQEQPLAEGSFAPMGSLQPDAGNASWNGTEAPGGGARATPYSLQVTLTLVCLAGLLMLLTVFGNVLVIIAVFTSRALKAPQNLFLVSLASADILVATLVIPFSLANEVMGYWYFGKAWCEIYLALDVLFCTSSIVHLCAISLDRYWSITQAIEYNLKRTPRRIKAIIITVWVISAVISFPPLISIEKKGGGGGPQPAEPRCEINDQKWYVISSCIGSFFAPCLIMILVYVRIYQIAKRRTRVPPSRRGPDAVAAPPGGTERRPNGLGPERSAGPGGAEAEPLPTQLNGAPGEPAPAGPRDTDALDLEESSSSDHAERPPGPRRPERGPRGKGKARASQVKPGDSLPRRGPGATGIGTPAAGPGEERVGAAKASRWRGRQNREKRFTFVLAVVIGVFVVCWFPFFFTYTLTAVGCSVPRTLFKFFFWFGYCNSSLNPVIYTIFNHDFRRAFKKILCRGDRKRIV

Vasopressin V1a receptor = Vasopressin V1a receptor (Homo sapiens, UniProt P37288); assay type: cell membranes, Membrane; settings: hek293; note: in other assays of this panel Not Active means under 50% inhibition at 10 µM
D(4) dopamine receptor = biological target: T2, D(4) dopamine receptor (Homo sapiens, UniProt P21917); experiment: DRUGMATRIX: Dopamine D4.2 radioligand binding (ligand: [3H] Spiperone); assay type: cell membranes, CHO-K1, Membrane; settings: Not Active = under 50% inhibition at 10 µM; for Ki: read-out: Ki
T2 sequence (P21917 whole entry): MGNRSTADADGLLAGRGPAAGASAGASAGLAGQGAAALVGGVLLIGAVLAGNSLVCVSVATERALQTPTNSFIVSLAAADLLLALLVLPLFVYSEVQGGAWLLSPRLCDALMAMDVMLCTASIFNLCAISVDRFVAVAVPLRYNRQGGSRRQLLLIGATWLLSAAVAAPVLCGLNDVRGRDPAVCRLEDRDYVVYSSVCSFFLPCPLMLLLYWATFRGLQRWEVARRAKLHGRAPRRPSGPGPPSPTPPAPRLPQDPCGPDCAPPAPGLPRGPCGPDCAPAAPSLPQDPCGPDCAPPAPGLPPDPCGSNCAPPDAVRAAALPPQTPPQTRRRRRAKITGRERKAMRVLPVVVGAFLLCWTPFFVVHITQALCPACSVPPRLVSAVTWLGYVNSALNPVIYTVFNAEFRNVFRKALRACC

[2] = DRUGMATRIX: Glutamate, Kainate radioligand binding (ligand: [3H] Kainic acid); assay type: cell membranes, Rattus norvegicus, Wistar, Brain, Membrane; settings: Not Active = under 50% inhibition at 10 µM
Glycine receptor = Glycine receptor (Rattus norvegicus, UniProt P22771+P24524+P07727+P20781); assay type: cell membranes, Wistar, Spinal cord, Membrane; note: in other assays of this panel Not Active means under 50% inhibition at 10 µM
Histamine H2 receptor = Histamine H2 receptor (Homo sapiens, UniProt P25021); assay type: cell membranes, CHO-K1, Membrane; settings: for Ki: read-out: Ki; for all read-outs here: in other assays of this panel Not Active means under 50% inhibition at 10 µM
[3] = DRUGMATRIX: Leukotriene, BLT (LTB4) radioligand binding (ligand: [3H]LTB4); assay type: cell membranes, Membrane; settings: u-937; Not Active = under 50% inhibition at 10 µM
Leukotriene C4 synthase = biological target: T3, Leukotriene C4 synthase (Cavia porcellus, UniProt A6XA80); experiment: biochemical; assay type: tissue-based, Lung
T3 sequence (A6XA80 whole entry): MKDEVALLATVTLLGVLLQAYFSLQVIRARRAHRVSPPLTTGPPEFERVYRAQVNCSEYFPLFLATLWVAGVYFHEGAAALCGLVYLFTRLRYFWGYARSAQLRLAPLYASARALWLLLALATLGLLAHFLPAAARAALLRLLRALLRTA

[4] = biological target: cGMP-specific 3',5'-cyclic phosphodiesterase (Homo sapiens, UniProt O76074); experiment: DRUGMATRIX: Phosphodiesterase PDE5 enzyme inhibition (substrate: [3H]cGMP + cGMP); assay type: tissue-based, Platelet; settings: platelet; Not Active = under 50% inhibition at 10 µM
Adenosine receptor A3 = biological target: T4, Adenosine receptor A3 (Homo sapiens, UniProt P0DMS8); assay type: cell membranes, CHO-K1, Membrane
T4 sequence (P0DMS8 whole entry): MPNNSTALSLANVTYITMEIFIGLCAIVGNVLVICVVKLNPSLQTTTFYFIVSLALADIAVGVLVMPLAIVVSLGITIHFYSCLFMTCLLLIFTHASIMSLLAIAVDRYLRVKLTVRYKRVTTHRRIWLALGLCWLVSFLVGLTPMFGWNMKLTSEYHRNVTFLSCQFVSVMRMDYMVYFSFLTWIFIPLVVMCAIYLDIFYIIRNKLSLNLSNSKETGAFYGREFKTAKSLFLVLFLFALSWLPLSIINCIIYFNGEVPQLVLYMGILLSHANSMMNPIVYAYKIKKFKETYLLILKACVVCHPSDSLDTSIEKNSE

Vasopressin V1a receptor, sequence (P37288 whole entry): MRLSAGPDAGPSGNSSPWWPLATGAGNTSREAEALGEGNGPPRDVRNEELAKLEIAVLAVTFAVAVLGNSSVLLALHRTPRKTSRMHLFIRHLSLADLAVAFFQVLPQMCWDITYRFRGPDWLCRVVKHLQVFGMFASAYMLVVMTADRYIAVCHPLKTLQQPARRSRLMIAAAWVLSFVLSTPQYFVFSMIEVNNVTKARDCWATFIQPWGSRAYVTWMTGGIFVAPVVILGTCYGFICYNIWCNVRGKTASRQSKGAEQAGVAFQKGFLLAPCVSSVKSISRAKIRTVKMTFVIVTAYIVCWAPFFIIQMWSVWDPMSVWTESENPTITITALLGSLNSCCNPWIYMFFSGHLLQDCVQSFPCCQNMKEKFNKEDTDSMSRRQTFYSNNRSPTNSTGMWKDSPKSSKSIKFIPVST
Histamine H2 receptor, sequence (P25021 whole entry): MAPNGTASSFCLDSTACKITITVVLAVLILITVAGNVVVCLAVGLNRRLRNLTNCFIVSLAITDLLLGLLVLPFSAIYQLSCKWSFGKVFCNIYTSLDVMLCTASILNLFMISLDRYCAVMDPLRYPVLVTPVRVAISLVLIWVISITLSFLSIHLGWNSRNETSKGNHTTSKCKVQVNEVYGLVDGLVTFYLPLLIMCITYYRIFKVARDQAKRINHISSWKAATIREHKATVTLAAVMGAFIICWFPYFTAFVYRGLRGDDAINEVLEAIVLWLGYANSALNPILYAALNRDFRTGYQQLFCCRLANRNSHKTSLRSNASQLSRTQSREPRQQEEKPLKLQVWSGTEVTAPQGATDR

Structure (SMILES)	IC50 ([1]; sf9)	IC50 (Vasopressin V1a receptor)	IC50 (D(4) dopamine receptor; cho-k1)	IC50 [2]	Ki [2]	IC50 (Glycine receptor)	IC50 (Histamine H2 receptor; cho-k1)	IC50 [3]	Ki [3]	IC50 (Leukotriene C4 synthase)	IC50 [4]	IC50 (Adenosine receptor A3; cho-k1)	IC50 ([1]; read-out: IC50) [µM]	IC50 (Histamine H2 receptor; read-out: IC50) [µM]	Ki (Histamine H2 receptor) [µM]	IC50 (D(4) dopamine receptor; read-out: IC50) [µM]	Ki (D(4) dopamine receptor) [µM]	IC50 (Adenosine receptor A3; read-out: IC50) [µM]	Ki (Adenosine receptor A3; read-out: Ki) [µM]
NCCCC[C@H](N[C@@H](CCc1ccccc1)C(=O)O)C(=O)N1CCC[C@H]1C(=O)O [LISINOPRIL ANHYDROUS]	Not Active	Not Active	Not Active	Not Active	Not Active	Not Active	Not Active	Not Active	Not Active	Not Active	Not Active	Not Active							
CN1[C@@H]2CC[C@H]1C[C@@H](OC(=O)c1c[nH]c3ccccc13)C2 [TROPISETRON]	Not Active	Not Active	Not Active	Not Active	Not Active	Not Active	Not Active	Not Active	Not Active	Not Active	Not Active	Not Active							
CC(=O)[C@H]1CC[C@H]2[C@@H]3CCC4=CC(=O)CC[C@]4(C)[C@H]3CC[C@]12C [PROGESTERONE]	Not Active	Not Active	Not Active	Not Active	Not Active	Not Active	Not Active	Not Active	Not Active	Not Active	Not Active	Not Active							
COc1cccc(C2(O)CCCCC2CN(C)C)c1 (stereo unspecified) [TRAMADOL]	Not Active	Not Active	Not Active			Not Active	Not Active			Not Active	Not Active	Not Active							
C[C@](N)(Cc1ccc(O)cc1)C(=O)O [METYROSINE]	Not Active	Not Active	Not Active	Not Active	Not Active	Not Active	Not Active	Not Active	Not Active	Not Active	Not Active	Not Active							
CC1(C)[C@H]2CC[C@]1(C)C(=O)C2 [(-)-CAMPHOR]	Not Active	Not Active	Not Active	Not Active	Not Active	Not Active	Not Active	Not Active	Not Active	Not Active	Not Active	Not Active							
C=CC[C@@H]1/C=C(\C)C[C@H](C)C[C@H](OC)[C@H]2O[C@@](O)(C(=O)C(=O)N3CCCC[C@H]3C(=O)O[C@H](/C(C)=C/[C@@H]3CC[C@@H](O)[C@H](OC)C3)[C@H](C)[C@@H](O)CC1=O)[C@H](C)C[C@@H]2OC [TACROLIMUS ANHYDROUS]	Not Active	Not Active	Not Active	Not Active	Not Active	Not Active	Not Active	Not Active	Not Active	Not Active	Not Active	Not Active							
c1ccc2[nH]c(-c3cscn3)nc2c1 [THIABENDAZOLE]	Not Active	Not Active	Not Active	Not Active	Not Active	Not Active	Not Active	Not Active	Not Active	Not Active	Not Active	Not Active							
CN(C)CCCN1c2ccccc2CCc2ccc(Cl)cc21 [CLOMIPRAMINE]		Not Active	Not Active			Not Active				Not Active	Not Active	Not Active	1.41	2.05	2.02				
CC(C)(O)c1ccccc1CC[C@@H](SCC1(CC(=O)O)CC1)c1cccc(/C=C/c2ccc3ccc(Cl)cc3n2)c1 [MONTELUKAST]		Not Active	Not Active			Not Active	Not Active			Not Active	Not Active								
COC(=O)C1=C(C)NC(C)=C(C(=O)OC)C1c1ccccc1[N+](=O)[O-] [NIFEDIPINE]	Not Active	Not Active	Not Active	Not Active	Not Active	Not Active	Not Active	Not Active	Not Active	Not Active	Not Active								
Clc1ccccc1C(c1ccccc1)(c1ccccc1)n1ccnc1 [CLOTRIMAZOLE]		Not Active				Not Active				Not Active	Not Active			5.17	5.08	19.9	6.99	4.75	2.69
CSc1ccc2c(c1)N(CCC1CCCCN1C)c1ccccc1S2 (stereo unspecified) [THIORIDAZINE]		Not Active				Not Active				Not Active	Not Active	Not Active				1.47	0.515		
COc1ccc(CCN2CCC(Nc3nc4ccccc4n3Cc3ccc(F)cc3)CC2)cc1 [ASTEMIZOLE]		Not Active				Not Active				Not Active	Not Active								
COC(=O)[C@@H]1[C@H]2C[C@H]3c4[nH]c5ccccc5c4CCN3C[C@@H]2CC[C@@H]1O [YOHIMBINE]		Not Active	Not Active	Not Active	Not Active	Not Active	Not Active	Not Active	Not Active	Not Active	Not Active	Not Active							
O=C(CCCN1CCC(O)(c2ccc(Cl)cc2)CC1)c1ccc(F)cc1 [HALOPERIDOL]		Not Active				Not Active				Not Active	Not Active	Not Active							
CN1CCN2c3ccccc3Cc3ccccc3C2C1 (stereo unspecified) [MIANSERIN]		Not Active	Not Active			Not Active				Not Active	Not Active	Not Active							
